Results reported in patent publication US11168093B2, “Thienopyridine inhibitors of RIPK2” (Celgene Corporation, priority 2018, dated 2021).

Target: RIPK2 enzyme (Homo sapiens (Human), UniProt O43353)
Experiment: RIPK2 inhibition assay, TR-FRET LanthaScreen Tracer 199 screening assay
Assay type: binding
Settings: 5 nM RIPK2 enzyme, Tracer 199 at 50 nM, Eu-anti-His Antibody at 2 nM, 1 hour incubation
Procedure, shortened: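 TR-FRET binding displacement: 5 nM RIPK2, 50 nM Tracer 199, 2 nM Eu-anti-His antibody in 1× kinase reaction buffer, 1 h, read at room temperature (340 ex/665 and 615 em). No-enzyme background subtracted; percent inhibition versus uninhibited controls, IC50 from unconstrained variable-slope fit.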

Sequence of RIPK2 enzyme (O43353 whole entry): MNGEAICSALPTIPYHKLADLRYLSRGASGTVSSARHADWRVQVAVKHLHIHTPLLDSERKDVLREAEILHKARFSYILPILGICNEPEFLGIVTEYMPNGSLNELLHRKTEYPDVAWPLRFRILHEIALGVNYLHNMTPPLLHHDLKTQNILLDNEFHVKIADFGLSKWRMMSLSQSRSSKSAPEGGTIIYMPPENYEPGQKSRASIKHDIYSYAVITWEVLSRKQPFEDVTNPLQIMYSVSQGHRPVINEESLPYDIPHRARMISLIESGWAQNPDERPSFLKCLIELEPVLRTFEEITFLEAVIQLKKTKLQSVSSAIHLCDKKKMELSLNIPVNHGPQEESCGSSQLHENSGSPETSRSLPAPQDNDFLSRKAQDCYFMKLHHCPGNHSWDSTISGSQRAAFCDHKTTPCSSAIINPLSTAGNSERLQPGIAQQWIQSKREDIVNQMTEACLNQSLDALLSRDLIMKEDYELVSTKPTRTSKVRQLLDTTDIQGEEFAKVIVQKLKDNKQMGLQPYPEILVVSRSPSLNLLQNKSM

Row | SMILES | IC50 [nM]
1 | CC1C(c2cc3c(Nc4c(F)cc5scnc5c4F)ccnc3s2)CCN1CCO (stereo not shown) [Example 95, 2-(3-(4-((4,6-difluorobenzo[d]thiazol-5-yl)amino)thieno[2,3-b]pyridin-2-yl)-2-methyl-pyrrolidin-1-yl)ethan-1-ol] | 10 to 20
2 | CC1(C)NCCC1c1cc2c(Nc3c(F)cc4scnc4c3F)ccnc2s1 (stereo not shown) [Example 96, N-(2-(2,2-dimethylpyrrolidin-3-yl)thieno[2,3-b]pyridin-4-yl)-4,6-difluorobenzo[d]thiazol-5-amine] | ≤ 10
3 | CCN1CCC(c2cc3c(Nc4c(F)cc5scnc5c4F)ccnc3s2)C1(C)C (stereo not shown) [Example 97, N-(2-(1-ethyl-2,2-dimethylpyrrolidin-3-yl)thieno[2,3-b]pyridin-4-yl)-4,6-difluorobenzo[d]thiazol-5-amine] | ≤ 10
4 | CC1(C)C(c2cc3c(Nc4c(F)cc5scnc5c4F)ccnc3s2)CCN1CCO (stereo not shown) [Example 98, 2-(3-(4-((4,6-difluorobenzo[d]thiazol-5-yl)amino)thieno[2,3-b]pyridin-2-yl)-2,2-dimethylpyrrolidin-1-yl)ethan-1-ol] | ≤ 10
5 | Fc1cc2scnc2c(F)c1Nc1ccnc2sc(C3CCNC34CCOC4)cc12 (stereo not shown) [Example 99, N-(2-(7-oxa-1-azaspiro[4.4]nonan-4-yl)thieno[2,3-b]pyridin-4-yl)-4,6-difluorobenzo[d]thiazol-5-amine] | 10 to 20
6 | CN1CCC(c2cc3c(Nc4c(F)cc5scnc5c4F)ccnc3s2)C12CCOC2 (stereo not shown) [Example 100, 4,6-difluoro-N-(2-(1-methyl-7-oxa-1-azaspiro[4.4]nonan-4-yl)thieno[2,3-b]pyridin-4-yl)benzo[d]thiazol-5-amine] | 10 to 20
7 | CCN1CCC(c2cc3c(Nc4c(F)cc5scnc5c4F)ccnc3s2)C12CCOC2 (stereo not shown) [Example 101, N-(2-(1-ethyl-7-oxa-1-azaspiro[4.4]nonan-4-yl)thieno[2,3-b]pyridin-4-yl)-4,6-difluorobenzo[d]thiazol-5-amine] | 20 to 50
8 | Fc1cc2scnc2c(F)c1Nc1ccnc2sc(C3CCNC34CCOCC4)cc12 (stereo not shown) [Example 102, N-(2-(8-oxa-1-azaspiro[4.5]decan-4-yl)thieno[2,3-b]pyridin-4-yl)-4,6-difluorobenzo[d]thiazol-5-amine] | 10 to 20
9 | CN1CCC(c2cc3c(Nc4c(F)cc5scnc5c4F)ccnc3s2)C12CCOCC2 (stereo not shown) [Example 103, 4,6-difluoro-N-(2-(1-methyl-8-oxa-1-azaspiro[4.5]decan-4-yl)thieno[2,3-b]pyridin-4-yl)benzo[d]thiazol-5-amine] | 20 to 50
10 | CCN1CCC(c2cc3c(Nc4c(F)cc5scnc5c4F)ccnc3s2)C12CCOCC2 (stereo not shown) [Example 104, N-(2-(1-ethyl-8-oxa-1-azaspiro[4.5]decan-4-yl)thieno[2,3-b]pyridin-4-yl)-4,6-difluorobenzo[d]thiazol-5-amine] | ≥ 50
11 | C1=C(c2cc3c(Nc4ccc5scnc5c4)ccnc3s2)CCNCC1 [Example 105, N-(2-(2,3,6,7-tetrahydro-1H-azepin-4-yl)thieno[2,3-b]pyridin-4-yl)benzo[d]thiazol-5-amine] | ≤ 10
12 | CN1CCC=C(c2cc3c(Nc4ccc5scnc5c4)ccnc3s2)CC1 [Example 106, N-(2-(1-methyl-2,3,6,7-tetrahydro-1H-azepin-4-yl)thieno[2,3-b]pyridin-4-yl)benzo[d]thiazol-5-amine] | ≤ 10
13 | CC(=O)N1CCC=C(c2cc3c(Nc4ccc5scnc5c4)ccnc3s2)CC1 [Example 107, 1-(4-(4-(benzo[d]thiazol-5-ylamino)thieno[2,3-b]pyridin-2-yl)-2,3,6,7-tetrahydro-1H-azepin-1-yl)ethan-1-one] | ≤ 10
14 | c1cc(Nc2ccc3scnc3c2)c2cc(C3CCCNCC3)sc2n1 (stereo not shown) [Example 108, N-(2-(azepan-4-yl)thieno[2,3-b]pyridin-4-yl)benzo[d]thiazol-5-amine] | ≤ 10
15 | CN1CCCC(c2cc3c(Nc4ccc5scnc5c4)ccnc3s2)CC1 (stereo not shown) [Example 109, N-(2-(1-methylazepan-4-yl)thieno[2,3-b]pyridin-4-yl)benzo[d]thiazol-5-amine] | ≤ 10
16 | CCN1CCCC(c2cc3c(Nc4ccc5scnc5c4)ccnc3s2)CC1 (stereo not shown) [Example 110, N-(2-(1-ethylazepan-4-yl)thieno[2,3-b]pyridin-4-yl)benzo[d]thiazol-5-amine] | ≤ 10
17 | CC(=O)N1CCCC(c2cc3c(Nc4ccc5scnc5c4)ccnc3s2)CC1 (stereo not shown) [Example 111, 1-(4-(4-(benzo[d]thiazol-5-ylamino)thieno[2,3-b]pyridin-2-yl)azepan-1-yl)ethan-1-one] | 10 to 20
18 | C1=C(c2cc3c(Nc4ccc5scnc5c4)ccnc3s2)CNCCC1 [Example 112, N-(2-(2,5,6,7-tetrahydro-1H-azepin-3-yl)thieno[2,3-b]pyridin-4-yl)benzo[d]thiazol-5-amine] | ≤ 10
19 | CN1CCCC=C(c2cc3c(Nc4ccc5scnc5c4)ccnc3s2)C1 [Example 113, N-(2-(1-methyl-2,5,6,7-tetrahydro-1H-azepin-3-yl)thieno[2,3-b]pyridin-4-yl)benzo[d]thiazol-5-amine] | ≤ 10
20 | CC(=O)N1CCCC=C(c2cc3c(Nc4ccc5scnc5c4)ccnc3s2)C1 [Example 114, 1-(6-(4-(benzo[d]thiazol-5-ylamino)thieno[2,3-b]pyridin-2-yl)-2,3,4,7-tetrahydro-1H-azepin-1-yl)ethan-1-one] | ≤ 10
21 | CC1NCCCC1c1cc2c(Nc3ccc4scnc4c3)c(F)cnc2s1 (stereo not shown) [Example 119, N-(5-fluoro-2-(2-methylpiperidin-3-yl)thieno[2,3-b]pyridin-4-yl)benzo[d]thiazol-5-amine] | 20 to 50
22 | CC1C(c2cc3c(Nc4ccc5scnc5c4)c(F)cnc3s2)CCCN1C (stereo not shown) [Example 120, N-(2-(1,2-dimethylpiperidin-3-yl)-5-fluorothieno[2,3-b]pyridin-4-yl)benzo[d]-thiazol-5-amine] | ≤ 10
23 | CCN1CCCC(c2cc3c(Nc4ccc5scnc5c4)c(F)cnc3s2)C1C (stereo not shown) [Example 121, N-(2-(1-ethyl-2-methylpiperidin-3-yl)-5-fluorothieno[2,3-b]pyridin-4-yl)benzo[d]thiazol-5-amine] | ≤ 10

Results, then the compound that gave them:

Row | IC50 [nM] | SMILES
24 | ≤ 10 | CC1NCCCCC1c1cc2c(Nc3ccc4scnc4c3)ccnc2s1 (stereo not shown) [Example 115a, N-(2-(2-methylazepan-3-yl)thieno[2,3-b]pyridin-4-yl)benzo[d]thiazol-5-amine]
25 | ≤ 10 | CC1C(c2cc3c(Nc4ccc5scnc5c4)ccnc3s2)CCCCN1C (stereo not shown) [Example 116a, N-(2-(1,2-dimethylazepan-3-yl)thieno[2,3-b]pyridin-4-yl)benzo[d]thiazol-5-amine]
26 | ≤ 10 | CC1NCCCCC1c1cc2c(Nc3cc4ncsc4cc3F)ccnc2s1 (stereo not shown) [Example 117c]
27 | ≤ 10 | CC1NCCCCC1c1cc2c(Nc3c(F)cc4scnc4c3F)ccnc2s1 (stereo not shown) [Example 118b, 4,6-difluoro-N-(2-(2-methylazepan-3-yl)thieno[2,3-b]pyridin-4-yl)benzo[d]thiazol-5-amine]
28 | ≥ 50 | CC1NCCCC1c1cc2c(Nc3cc4ncsc4cc3F)c(F)cnc2s1 (stereo not shown) [Example 122a, 6-fluoro-N-(5-fluoro-2-(2-methylpiperidin-3-yl)thieno[2,3-b]pyridin-4-yl) benzo[d]thiazol-5-amine]
29 | ≥ 50 | CC1C(c2cc3c(Nc4cc5ncsc5cc4F)c(F)cnc3s2)CCCN1C (stereo not shown) [Example 123a, N-(2-(1,2-dimethylpiperidin-3-yl)-5-fluorothieno[2,3-b]pyridin-4-yl)-6-fluorobenzo[d]thiazol-5-amine]
30 | ≤ 10 | CC1NCCCC1c1cc2c(Nc3c(F)cc4scnc4c3F)c(F)cnc2s1 (stereo not shown) [Example 126a, 4,6-difluoro-N-(5-fluoro-2-(2-methylpiperidin-3-yl)thieno[2,3-b]pyridin-4-yl)benzo[d]thiazol-5-amine]
31 | ≤ 10 | CC1C(c2cc3c(Nc4c(F)cc5scnc5c4F)c(F)cnc3s2)CCCN1C (stereo not shown) [Example 127b]
